Test results as given in US12370161B2, “Composition for treating atopy or pruritus comprising N-acetyl or N-acyl amino acid” (STEMDR INC., priority 2017, dated 2025).

What was measured:
[1] = system: atopic dermatitis-induced Nc/Nga mouse; experiment: SCORAD clinical skin score, DNFB-induced atopic dermatitis in Nc/Nga mouse; assay type: in vivo; design: key to Mouse 1 Erythema / Mouse 2 Eschar / Mouse 2 Dryness / Mouse 2 Abrasion / Mouse 1 Edema / Mouse 1 Eschar / Mouse 1 Dryness / Mouse 1 Abrasion / Mouse 2 Erythema / Mouse 2 Edema / Mouse 3 Erythema / Mouse 3 Edema / Mouse 3 Eschar / Mouse 3 Dryness / Mouse 3 Abrasion: 0 = no symptom, 1 = mild, 2 = moderate, 3 = severe; key to Mouse 1 Sum / Mean (of Sum, SCORAD) / Mouse 3 Sum: sum of individual symptom scores, each graded 0-3; conditions: for dermatitis-treating effect of L-, L/D- and D-form (FIG. 6): Nc/Nga atopic dermatitis model, 0.1%; for Mouse 1 Erythema: DNFB Nc/Nga (FIG. 8), 0.1% in PBS, 200 μL on back skin daily day 15-21; for Mouse 1 Erythema / Mouse 1 Abrasion / Mouse 1 Dryness / Mouse 1 Edema / Mouse 1 Eschar / Mouse 1 Lichenification / Mouse 2 Abrasion / Mouse 2 Dryness / Mouse 2 Edema / Mouse 2 Erythema / Mouse 2 Eschar / Mouse 2 Lichenification / Mouse 3 Abrasion / Mouse 3 Dryness / Mouse 3 Edema / Mouse 3 Erythema / Mouse 3 Eschar / Mouse 3 Lichenification: graded per Example 4; for Mouse 1 Abrasion / Mouse 1 Dryness / Mouse 1 Edema / Mouse 1 Eschar / Mouse 1 Lichenification / Mouse 1 Sum / Mouse 2 Abrasion / Mouse 2 Dryness / Mouse 2 Edema / Mouse 2 Erythema / Mouse 2 Eschar / Mouse 2 Lichenification / Mouse 2 Sum / Mouse 3 Abrasion / Mouse 3 Dryness / Mouse 3 Edema / Mouse 3 Erythema / Mouse 3 Eschar / Mouse 3 Lichenification / Mouse 3 Sum / Mean (of Sum, SCORAD): DNFB Nc/Nga, 0.1% topical day 15-21; for Mouse 1 Sum / Mouse 2 Sum / Mouse 3 Sum: sum of individual scores; for Mean (of Sum, SCORAD): mean of 3 mice
Description: In order to establish a model more similar to an atopy model than that of the Balb/c mice, atopy was induced in Nc/Nga mouse mice. Specifically, after inducing DNFB sensitization by applying 100 μL of 0.35% 2,4-dinitrofluorobenzene (DNFB) in acetone/olive oil (3:1) on the shaved back skin, dermatitis was induced by applying 100 μL of 0.15% DNFB for 4-20 days, every other day. Control mice were treated with a vehicle of the same volume (FIG. 1B).
After dissolving an N-acetyl or N-acylamino acid in phosphate-buffered saline to 0.1%, 200 μL of the solution was applied on the back skin of the mice every day, from day 22 until day 28 for the Balb/c atopic dermatitis model, and from day 15 until day 21 for the Nc/Nga atopic dermatitis model. When the N-acetyl or N-acylamino acid was treated together with DNFB, they were treated with 12-hour intervals in order to avoid direct reaction between the DNFB and the N-acetyl or N-acylamino acid. A non-treated group and a 2,4-dinitrofluorobenzene (DNFB) group were treated with phosphate-buffered saline of the same volume (FIGS. 1A-1B). As the N-acetylamino acid, products purchased from Sigma-Aldrich (USA), MP scientific (USA), TCI (Tokyo Chemical Industry, Japan), Santacruz (USA), etc. were used without purification.
The degree of skin soothing and the severity of atopic dermatitis were evaluated macroscopically according to the previously established SCORAD (SCORing Atopic Dermatitis) method (Oranje et al., 2007). The degree of symptoms such as edema, erythema, eschar, dryness, abrasion, lichenification, etc. was graded from 0 to 3 (0, no symptom; 1, mild; 2, moderate; 3, severe). The overall dermatitis score was determined from the sum of all individual scores (Table 1). The assessment was performed by an investigator who was blind to the grouping of the mice.
Skin-soothing effect and the severity of dermatitis were evaluated for the acyl derivatives of tryptophan synthesized in Example 9, the acyl derivative of alanine synthesized in Example 10 and N-palmitoylalanine (purchased from Santacruz (USA)) according to the method of Example 4 (Table 2)

[2] = system: pruritus caused by atopic contact dermatitis; experiment: Pruritus inhibition test, pruritus induced with DNFB; assay type: in vivo, mouse; conditions: 0.1% in physiological saline applied once onto right ear; pruritus measured for 1 hour
Description: In order to investigate whether L-form, LID-form and D-form N-acetylalanine, N-acetylarginine, N-acetylthreonine and N-acetyltryptophan inhibit pruritus caused by atopic contact dermatitis, 20 μL of 0.1% 2,4-dinitrofluorobenzene (DNFB) solution and 0.1% N-acetylamino acid dissolved in physiological saline were applied once onto the right ear 10 minutes after the final treatment (day 27) with 2,4-dinitrofluorobenzene (DNFB) (Physiological saline was applied to a negative control group), and then pruritus was measured for 1 hour. FIG. 7 compares the pruritus-relieving effect of L-form N-acetylalanine, N-acetylthreonine, N-acetylarginine and N-acetyltryptophan with D/L-form and D-form N-acetylalanine and N-acetyltryptophan at 0.1% after the induction of pruritus with DNFB.

Compound | Mouse 1 Erythema [1] | Mouse 1 Abrasion [1] | Mouse 1 Dryness [1] | Mouse 1 Edema [1] | Mouse 1 Eschar [1] | Mouse 1 Lichenification [1] | Mouse 1 Sum [1] | Mouse 2 Abrasion [1] | Mouse 2 Dryness [1] | Mouse 2 Edema [1] | Mouse 2 Erythema [1] | Mouse 2 Eschar [1] | Mouse 2 Lichenification [1] | Mouse 2 Sum [1] | Mouse 3 Abrasion [1] | Mouse 3 Dryness [1] | Mouse 3 Edema [1] | Mouse 3 Erythema [1] | Mouse 3 Eschar [1] | Mouse 3 Lichenification [1] | also measured
CC(=O)N[C@@H](C)C(=O)O [D/L-form N-acetylalanine, N-acetylalanine, reference compound] |  |  |  |  |  |  |  |  |  |  |  |  |  |  |  |  |  |  |  |  | dermatitis-treating effect of L-, L/D- and D-form (FIG. 6) ([1]; listed as LID-form N-acetylalanine): no effect; pruritus-relieving effect (FIG. 7) [2]: little effect
CC(=O)N[C@@H](Cc1c[nH]c2ccccc12)C(=O)O [D/L-form N-acetyltryptophan, N-acetyltryptophan, reference compound] |  |  |  |  |  |  |  |  |  |  |  |  |  |  |  |  |  |  |  |  | dermatitis-treating effect of L-, L/D- and D-form (FIG. 6) ([1]; listed as LID-form N-acetyltryptophan): no effect; pruritus-relieving effect (FIG. 7) [2]: little effect
CCCC(=O)N[C@@H](Cc1c[nH]c2ccccc12)C(=O)O [N-butyryl L-tryptophan, N-butyryl-L-tryptophan] | 1 | 1 | 2 | 2 | 2 | 2 | 10 | 2 | 2 | 1 | 2 | 1 | 2 | 10 | 1 | 1 | 1 | 1 | 1 | 2 | Mouse 3 Sum [1]: 6; Mean (of Sum, SCORAD) [1]: 8.7
CCCCCCCC/C=C\CCCCCCCC(=O)N[C@@H](Cc1c[nH]c2ccccc12)C(=O)O [N-oleoyl-L-tryptophan] | 2 | 2 | 2 | 1 | 2 | 3 | 12 | 2 | 2 | 1 | 1 | 1 | 3 | 10 | 2 | 2 | 1 | 2 | 1 | 2 | Mouse 3 Sum [1]: 10; Mean (of Sum, SCORAD) [1]: 10.7
CCCCCCCCCCCCCCCC(=O)N[C@@H](C)C(=O)O [N-palmitoyl L-alanine, N-palmitoyl-L-alanine] | 1 | 1 | 1 | 2 | 1 | 1 | 7 | 1 | 1 | 1 | 2 | 1 | 1 | 7 | 2 | 2 | 1 | 2 | 1 | 1 | Mouse 3 Sum [1]: 9; Mean (of Sum, SCORAD) [1]: 6.7
CCCCCCCCCCCCCCCC(=O)N[C@@H](Cc1c[nH]c2ccccc12)C(=O)O [N-palmitoyl-L-tryptophan] | 1 | 1 | 1 | 2 | 1 | 2 | 6 | 2 | 2 | 1 | 2 | 2 | 1 | 10 | 1 | 2 | 2 | 2 | 1 | 2 | Mouse 3 Sum [1]: 10; Mean (of Sum, SCORAD) [1]: 8.7
CCCCC(=O)N[C@@H](Cc1c[nH]c2ccccc12)C(=O)O [N-pentanoyl L-tryptophan, N-pentanoyl-L-tryptophan] | 2 | 1 | 2 | 2 | 2 | 2 | 11 | 1 | 2 | 2 | 2 | 1 | 2 | 10 | 2 | 1 | 2 | 2 | 2 | 1 | Mouse 3 Sum [1]: 10; Mean (of Sum, SCORAD) [1]: 10.3
CCC(=O)N[C@@H](Cc1c[nH]c2ccccc12)C(=O)O [N-propionyl L-tryptophan, N-propionyl-L-tryptophan] | 2 | 2 | 2 | 2 | 2 | 2 | 12 | 2 | 3 | 2 | 2 | 2 | 2 | 13 | 2 | 1 | 1 | 2 | 2 | 1 | Mouse 3 Sum [1]: 9; Mean (of Sum, SCORAD) [1]: 11.3
CCCCCCCCCCCCCCCCCC(=O)N[C@@H](Cc1c[nH]c2ccccc12)C(=O)O [N-stearyl-L-tryptophan, N-stearoyl-L-tryptophan] | 2 | 2 | 2 | 2 | 2 | 2 | 12 | 2 | 2 | 2 | 2 | 1 | 1 | 10 | 2 | 1 | 2 | 2 | 2 | 2 | Mouse 3 Sum [1]: 11; Mean (of Sum, SCORAD) [1]: 11
CCCCCCCCCCC(=O)N[C@@H](Cc1c[nH]c2ccccc12)C(=O)O [N-undecanoyl L-tryptophan, N-undecanoyl-L-tryptophan] | 1 | 2 | 1 | 2 | 1 | 2 | 9 | 2 | 1 | 1 | 2 | 2 | 2 | 10 | 1 | 1 | 2 | 1 | 2 | 2 | Mouse 3 Sum [1]: 9; Mean (of Sum, SCORAD) [1]: 9.3
